Experimental data published in patent publication US10239889B1, “Pentacyclic compound” (Eisai R&D Management Co., Ltd., priority 2017, dated 2019).

Assays:
[1] = system: acetylcholine (ACh) in CSF; assay: Measurement of acetylcholine (ACh) in rat cerebrospinal fluid (CSF); assay type: in vivo; conditions: Fischer344 rat, oral 10 mg/kg once a day for three days, CSF 24 hours after administration, LC-MS
Protocol: Measurement of Acetylcholine (ACh) in Rat Cerebrospinal Fluid (CSF)
Thus, the changes in acetylcholine in CSF were measured in order to determine the changes in intracerebral acetylcholine by the test compounds.
(§1) (2) Compound Administration
In this study, Fischer344 male rats (Charles River Laboratories Japan, Inc.) with a body weight of about 150 to 250 g were used. The test compounds were orally administered to the rats once a day at 10 mg/kg for three days. The vehicle used was 0.01 mol/L hydrochloric acid.
At 24 hours after the administration of the vehicle and the test compounds, the CSF was collected from cistema magna in a tube containing AchE inhibitors under pentobarbital anesthesia. The collected CSF was centrifuged at 3500×g at 4° C. for 10 minutes and the supernatant was collected. The collected supernatant was frozen with liquid nitrogen, and then stored at −80° C.
(4) Measurement of Ach by LC-MS
To 10 μL of the CSF was added 50 μL of acetylcholine-d9 chloride (ACh-d9) at a final concentration of 0.34 nmol/L as an internal standard. […] The supernatant was collected and subjected to LC/MS […], and Ach was detected as precursor ion at m/z 146.050 and as product ion at m/z 87.071 and ACh-d9 as an internal standard was detected as precursor ion at m/z 155.088 and as product ion at m/z 87.000. […]

[2] = system: cholinergic neurons, fimbria-fornix lesioned rat model; assay: Neuroprotective and restorative effect on cholinergic neurons using fimbria-fornix lesioned rat model (ChAT positive cells, hippocampal VAChT); assay type: in vivo; conditions: % of sham-operated group, mean±SEM; for OD in hippocampal VAChT (%) in test compound administration group: hippocampus; for Number of ChAT positive cells (%) in test compound administration group: medial septal area
Protocol: Neuroprotective and Restorative Effect on Cholinergic Neurons Usi Ng Fimbria-Fomix Lesioned Rat Model
(1) Preparation of Fimbria-Fomix Lesioned Rat Model
In this study, Sprague-Dawley male rats (Charles River Laboratories Japan, Inc.) with a body weight of about 250 to 350 g were used. The rat was anesthetized under the combination of three drugs: midazolam (2 mg/kg s.c.), medetomidine hydrochloride (0.15 mg/kg s.c.) and butorphanol tartrate (2.5 mg/kg s.c.) and fixed with a brain stereotaxis apparatus (Narishige Co., Ltd.). The cranial was exposed and a hole with 5 mm width was drilled in the skull from the median line 2 mm posterior to Bregma. A razor with 4 mm width was pierced into the Bregma in 5.5 mm depth to cut fimbria-fornmix. After hemostasis, the scalp was sutured. After the operation, the rat was brought back to the cage and recovered from the anesthesia. In the sham-operated group, a hole with 5 mm width was drilled in the skull from the median line 2 mm posterior to Bregma, but no razor was pierced.
as §1
The test compounds were orally administered to the rats once a day from five days to nine days after the operation (Example 1: 10 mg/kg) or from seven days to fourteen days after the operation (Example 3: 3 mg/kg). The vehicle used was 0.01 mol/L hydrochloric acid. In the sham-operated group, the vehicle was orally administered once a day similarly to the test compound administration group.
The rats were anesthetized under pentobarbital and transcardially perfused with ice-cold PBS. After the perfusion, the forebrain including the medial septal area was collected and immersed and shaken overnight with 4% paraformaldehyde. The immersion solution was replaced with 7.5% sucrose solution. It was immersed and shaken overnight in 7.5% sucrose solution, and the immersion solution was replaced with 15% sucrose solution and it was immersed and shaken overnight. The immersion solution was replaced with 30% sucrose solution and it was immersed and shaken overnight. […]
The prepared brain coronal frozen sections were stained with DAB (DAB PEROXIDASE SUBSTRATE KIT (Vector, SK-4100)) using a ChAT antibody (Santa Cruz, S.C.-20672) or a VAChT antibody (Merck Millipore, ABN100) as a primary antibody. The section image including the medial septal area or hippocampus as shown in “The mouse Brain in stereotaxic coordinates” (COMPACT THIRD EDITION, Keith B.J. Franklin & George Paxinos) was taken by an all-in-one fluorescence microscope (KEYENCE, BZ-X710) and ChAT positive cells of the medial septal area or optical density (OD) in hippocampal VAChT were measured by BZ analysis software (KEYENCE). […] Data are expressed as the mean±SEM. The differences between the vehicle-treated group and compound-treated (significant: #) was analyzed by unpaired t-test. […]

[3] = oral 3 mg/kg once a day from seven to fourteen days after operation
[4] = oral 10 mg/kg once a day from five to nine days after operation

Compound	Amount (%) increased with respect to from the amount of ACh in CSF the vehicle administration group [1]	OD in hippocampal VAChT (%) in test compound administration group [2, 3]	Number of ChAT positive cells (%) in test compound administration group [2, 3]	OD in hippocampal VAChT (%) in test compound administration group [2, 4]	Number of ChAT positive cells (%) in test compound administration group [2, 4]
CN1CCc2c(sc3nc4n(c(=O)c23)-c2sccc2C(=O)N(C)C4)C1 [Example 3, 5,10-dimethyl-5,6,9,10,11,12-hexahydropyrido[4″,3″:4′,5′]thieno[2′,3′:4,5]pyrimido[1,2-a]thieno[3,2-f][1,4]diazepine-4,13-dione]	156.8%	66.1 ± 14.2^# %	74.1 ± 9.3^# %		
CN1CCc2c(sc3nc4n(c(=O)c23)-c2ccc(F)cc2C(=O)N(C)C4)C1 [Example 1]	160.0%			77.1 ± 14.6^# %	79.1 ± 15.7%
